Measurements published in PMC5876303, “Discovery of C-3 Tethered 2-oxo-benzo[1,4]oxazines as Potent Antioxidants: Bio-Inspired Based Design, Synthesis, Biological Evaluation, Cytotoxic, and in Silico Molecular Docking Studies” (Frontiers in Chemistry, 2018).
≈ marks a conversion by molar mass, not a printed value. Read-outs that look alike come from different tables or passages of the source.

Experiments:
[1] = Figure 1, cited from earlier work
[2] = test system: 3T3 fibroblast cell lines; assay: in vitro; type: cell-based; conditions: mouse, 72 h, 250 μg/ml
Description: (§1) Cell toxicity of active C-3 tethered 2-oxo-benzo[1,4]oxazine analogs were accessed using 3T3 fibroblast cell lines in MTT assay via the reported protocol of Danihelová et al. ([2013]) [For details, see supporting information].
(§2) The cytotoxic effect of the active compounds prepared on cells was detected in vitro using the mitochondrial cytotoxic test according to Danihelová et al. (2013) with modifications. Cell viability was evaluated using thiazolyl blue tetrazolium bromide (MTT), which indicates the metabolic activity of cells. The experiment was performed in 96-well microplates. The cells were seeded at a density of 3.5×10^3 3T3 fibroblast cells per well. Samples were dissolved in DMSO (stock solution 10 […]
(§3) (concentration of DMSO 0.5%) and after 24 h they were added to the cells. Microplates were cultivated for 72 h in thermostat at 37 °C and 5% CO 2 atmosphere. After incubation thiazolyl blue tetrazolium bromide (3.33 mg/ml phosphate buffered saline, pH=7.4) was pipetted to each well and left to incubate for further two hours. Then the medium with MTT solution was removed. Formazan crystals in viable cells were dissolved in the lysis solution (4 mM HCl and 0.1% Nonidet P40 in ethanol). Microplates were shaken 15 min at 1500 rpm. Absorbance was measured at 540 nm and reference wavelength at 740 nm. Each value is the mean of 6 wells with standard deviation.
(§4) Inhibition activity was expressed as percentages of control with DMSO.

in vitro = type: cell-based; conditions: mouse, Cell viability (%)
Description: as §1, §2, §3, §4

[3] = Ferric reducing antioxidant power (FRAP) assay; type: biochemical; conditions: for FRAP assay (C0.5FRAP): mean ± SD, n = 3, concentration equivalent to FeSO4 at 0.5 mmol/L, 37°C, 30 min, 593 nm; for FRAP potency compared with standard reference BHT: in words, BHT C0.5FRAP = 546.0 ± 13.6 μM
Description: The FRAP reagent was prepared by the addition of freshly prepared 20.0 mM FeCl3.6H2O solution, 10.0 mM of […] (TPTZ) solution and 300 mM sodium acetate buffer (pH 3.6) in a ratio of 1:1:10 (v/v/v). After that, Sample (our synthesized 2-oxo-2-phenylethylidenes-linked 2-oxo-benzo[1,4]oxazines 20a-ab) was added to 3 ml of freshly prepared FRAP reagent and this reaction mixture was incubated at 37°C temperature for 30 min. and the absorbance was measured at 593 nm. It is also noted that, a freshly prepared solution of FeSO4 was used for calibration of standard curve. The FRAP antioxidant capability were evaluated in terms of C0.5FRAP (the antioxidant capability of samples related to their concentration, which is equivalent to that of FeSO4 at 0.5 mmol/L) (Benzie and Strain, [1996]).
The FRAP assay was deliberated using the method as illustrated by Benzie and Strain (Benzie and Strain, [1996]). […] The reducing nature of an antioxidant depends on their property to donate a hydrogen atom for the breaking of the free radical chain, which is responsible for oxidative stress etc.

[4] = DPPH radical scavenging antioxidant assay; type: biochemical; conditions: Table 1; mean ± SD, n = 3; 517 nm after 20 min
Description: In DPPH radical scavenging method the plant extract (0.75 mL) at different concentrations ranging from 10 to 100 μg mL^−1 was mixed with 1.5 mL of a DPPH methanolic solution (20 mg L^−1). Pure methanol was taken as control and ascorbic acid (vitamin C), vitamins A and E were used as a reference compounds. The absorbance was measured at 517 nm after 20 min of reaction. The % of DPPH decolouration of the sample was calculated according to the formula (Sharma and Bhat, [2009]).
Decolouration % = [1−(Abs SAMPLE/Abs CONTROL)]×100
The decolouration was plotted against the sample extract concentration and a logarithmic regression curve was established in order to calculate the IC50. The results are expressed as antiradical efficiency (AE), which is 1000-fold inverse of the IC50 value AE=1000/ IC50.

[5] = ref Niemeyer, 2009, Adhikari et al., 2013, Glenska et al., 2015

## COc1ccc2c(c1)OC(O)C(=O)N2O (stereo not drawn) [Compound 1, DIMBOA]
[1]; [5]
  % DPPH-scavenging activity: 98.57%
  IC50 (antioxidant activity): 11.31 µg/mL (≈ 53.6 µM)

## O=c1[nH]c2ccccc2c(=O)o1 [Compound 4, 2H-benzo[d][1,3]oxazine-2,4(1H)-dione]
[1]; ref Sáncheza et al., 2014
  % DPPH-scavenging activity: 17.2 ± 4.15%

## O=C1Nc2ccccc2OC1O (stereo not drawn) [Compound 5, 2-Hydroxy-1,4-benzoxazin-3(4H)-one]
[1]; ref Harput et al., 2011
  IC50 (antioxidant activity): 39.29 µg/mL (≈ 238 µM)

## COc1ccc(C(=O)/C=C2\Nc3ccccc3OC2=O)cc1 [Compound 20b, (Z)-3-[2-(4-methoxy-phenyl)-2-oxo-ethylidene]-3,4-dihydro-benzo [1, 4] oxazin-2-one]
[2]
  Cell viability (%): 75.58%
In vitro
  viability at 72 h, 25 μg/ml: 92.1%
  viability at 72 h, 50 μg/ml: 88.4%
  viability at 72 h, 100 μg/ml: 80.7%
  viability at 72 h, 250 μg/ml: > 65%
other
  melting point: 200 to 203 °C
[3]
  FRAP assay (C0.5FRAP): 686.4 ± 30.8 µM
[4]
  DPPH assay IC50: 6.89 ± 0.07 µg/mL

## O=C1Oc2ccc([N+](=O)[O-])cc2N/C1=C\C(=O)c1ccccc1 [Compound 20t, (Z)-6-nitro-3-(2-oxo-2-phenylethylidene)-3,4-dihydro-2H-benzo[b][1,4]oxazin-2-one]
[2]
  Cell viability (%): 67.46%
In vitro
  viability at 72 h, 25 μg/ml: 89.7%
  viability at 72 h, 50 μg/ml: 80.5%
  viability at 72 h, 100 μg/ml: 74.9%
  viability at 72 h, 250 μg/ml: > 65%
other
  melting point: 198 to 200 °C
[3]
  FRAP potency compared with standard reference BHT: less active than BHT
  FRAP assay (C0.5FRAP): 638.2 ± 32.6 µM
[4]
  DPPH assay IC50: 4.74 ± 0.08 µg/mL

## O=C1Oc2cc([N+](=O)[O-])ccc2N/C1=C\C(=O)c1ccc(F)cc1 [Compound 20x, (Z)-3-(2-(4-fluorophenyl)-2-oxoethylidene)-7-nitro-3,4-dihydro-2H-benzo[b][1,4]oxazin-2-one]
[2]
  Cell viability (%): 73.91%
In vitro
  viability at 72 h, 25 μg/ml: 95.5%
  viability at 72 h, 50 μg/ml: 86.7%
  viability at 72 h, 100 μg/ml: 81.1%
  viability at 72 h, 250 μg/ml: > 65%
other
  melting point: 235 to 237 °C
[3]
  FRAP assay (C0.5FRAP): 628.6 ± 32.4 µM
[4]
  DPPH assay IC50: 10.18 ± 0.1 µg/mL

## O=C1Oc2cc([N+](=O)[O-])ccc2N/C1=C\C(=O)c1ccc(Cl)cc1Cl [Compound 20z, (Z)-3-(2-(2,4-dichlorophenyl)-2-oxoethylidene)-7-nitro-3,4-dihydro-2H-benzo[b][1,4]oxazin-2-one]
other
  melting point: 208 to 210 °C
[3]
  FRAP potency compared with standard reference BHT: more potent than standard reference BHT
  FRAP assay (C0.5FRAP): 437.6 ± 39.4 µM
[4]
  DPPH assay IC50: 28.8 ± 0.67 µg/mL
